In patent publication US8912209B2, “Rock inhibitors” (Amakem NV, priority 2010, dated 2014):

molecular target: T1, ROCKα/ROCKII (Homo sapiens, UniProt O75116); experiment: ROCK inhibition, Method 2 fluorescence polarization (FP) assay, ROCK IMAP Kit; format: biochemical; conditions: 10 μM ATP, read-out: IC50 Meth. 2
T1 construct: purchased Upstate Biotechnology 14-451
Procedure: The inhibition assays were performed with a fluorescence polarization (FP) assay using the commercially available ROCK IMAP Kit from Molecular Devices (Product ID. No. R8093), essentially in accordance with the protocol supplied by the manufacturer. […] The enzyme mix ROCKα/ROCKII was obtained from Upstate Biotechnology (Product ID No 14-451).
In summary, all compounds were screened in the wells of a 384 well plate for enzymatic inhibition with concentrations varying from 100 μM to 0.3 nM using a stepwise 3 (or 2)-fold dilution.
To perform the assay, 1 μl of a solution of the compound to be tested in DMSO (at each concentration) was added to 2 μl of a solution of the enzyme in 10 mM Tris-HCl, 10 mM MgCl2, 0.1% BSA, 0.05% NaN3, pH 7,2. The final concentration of the enzyme was 2.6 nM.
After incubating for 30 minutes at RT, 2 μl of a mixture of ATP and the protein substrate in 10 mM Tris-HCl, 10 mM MgCl2, 0.1% BSA, 0.05% NaN3, pH 7.2 was added. The final concentration of the ATP was 10 μM and final concentration of protein substrate was 0.2 μM.
After incubating for 60 minutes at RT, 12 μl of the IMAP Binding Solution (mix of the IMAP Binding Buffer A (1×) and the IMAP Binding Reagent (from the ROCK IMAP kit)) was added.
The mixture thus obtained (total volume: 17 μl) was incubated for 60 minutes at RT, upon which the fluorescence polarization was measured using an automated plate reader (Perkin Elmer, Model Envision 2100-0010 HTS) with FP filters: excitation filter FITC FP 480 and emission filters FITC FP P-pol 535 and FITC FP S-pol 535 (Perkin-Elmer). The results were fitted to a curve using the XL-Fit algorithm and IC50 values were calculated for each fitted curve, again using the XL-Fit algorithm.

T1 sequence (O75116 whole entry): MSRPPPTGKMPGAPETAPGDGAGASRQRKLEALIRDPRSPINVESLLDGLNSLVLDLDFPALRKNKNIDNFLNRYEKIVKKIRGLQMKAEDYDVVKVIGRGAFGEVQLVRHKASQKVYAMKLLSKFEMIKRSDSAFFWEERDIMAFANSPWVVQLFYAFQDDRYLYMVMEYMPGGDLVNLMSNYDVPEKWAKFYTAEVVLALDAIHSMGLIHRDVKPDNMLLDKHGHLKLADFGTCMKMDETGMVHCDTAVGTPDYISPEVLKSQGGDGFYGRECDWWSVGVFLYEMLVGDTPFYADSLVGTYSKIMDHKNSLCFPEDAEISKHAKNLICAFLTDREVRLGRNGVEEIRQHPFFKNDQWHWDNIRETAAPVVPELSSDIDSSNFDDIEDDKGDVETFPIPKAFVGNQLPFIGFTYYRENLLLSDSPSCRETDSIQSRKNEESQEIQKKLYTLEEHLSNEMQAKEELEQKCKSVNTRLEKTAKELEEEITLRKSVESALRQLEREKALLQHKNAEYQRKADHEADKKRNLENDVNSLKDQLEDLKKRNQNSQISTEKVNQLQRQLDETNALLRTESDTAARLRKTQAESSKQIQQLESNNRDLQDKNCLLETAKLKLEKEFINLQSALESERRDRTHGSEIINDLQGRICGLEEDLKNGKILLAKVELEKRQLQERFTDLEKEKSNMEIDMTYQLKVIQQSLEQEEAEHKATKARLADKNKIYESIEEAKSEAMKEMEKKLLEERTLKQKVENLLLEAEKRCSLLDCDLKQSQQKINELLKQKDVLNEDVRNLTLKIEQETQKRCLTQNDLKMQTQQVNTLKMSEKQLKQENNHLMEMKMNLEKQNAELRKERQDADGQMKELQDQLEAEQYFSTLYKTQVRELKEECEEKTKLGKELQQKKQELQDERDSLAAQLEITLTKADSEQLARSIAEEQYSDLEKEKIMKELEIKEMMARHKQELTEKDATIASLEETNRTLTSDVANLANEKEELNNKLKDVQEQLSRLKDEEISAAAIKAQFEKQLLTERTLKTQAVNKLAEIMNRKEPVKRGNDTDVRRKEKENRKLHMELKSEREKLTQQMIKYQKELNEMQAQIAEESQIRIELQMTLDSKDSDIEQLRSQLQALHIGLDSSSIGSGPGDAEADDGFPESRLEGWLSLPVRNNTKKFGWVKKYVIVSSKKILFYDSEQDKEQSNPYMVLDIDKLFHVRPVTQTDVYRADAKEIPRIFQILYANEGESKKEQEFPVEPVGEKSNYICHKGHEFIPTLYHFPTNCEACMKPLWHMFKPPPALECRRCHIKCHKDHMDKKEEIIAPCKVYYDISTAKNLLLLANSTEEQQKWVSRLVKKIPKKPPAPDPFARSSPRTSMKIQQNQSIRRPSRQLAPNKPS

Structure (SMILES) | IC50
CC(N)c1ccc(C(=O)Nc2ccncc2)cc1-c1cccc(C(=O)OCc2c(F)c(F)c(F)c(F)c2F)c1 (stereo not drawn) [Compound 83, 2′-(1-Amino-ethyl)-5′-(pyridin-4-ylcarbamoyl)-biphenyl-3-carboxylic acid pentafluoro-phenylmethyl ester] | 100 to 1000 nM
CCCCCCCCCCOC(=O)c1cccc(-c2cc(C(=O)Nc3ccncc3)ccc2C(C)N)c1 (stereo not drawn) [Compound 20, 2′-(1-Amino-ethyl)-5′-(pyridin-4-ylcarbamoyl)-biphenyl-3-carboxylic acid decyl ester] | 1000 to 10000 nM
CC(N)c1ccc(C(=O)Nc2ccncc2F)cc1-c1cccc(OCC(=O)Oc2ccccc2)c1 (stereo not drawn) [Compound 142, [2′-(1-Amino-ethyl)-5′-(3-fluoro-pyridin-4-ylcarbamoyl)-biphenyl-3-yloxy]-acetic acid phenyl ester] | 100 to 1000 nM
CC(N)c1ccc(C(=O)Nc2ccncc2)cc1-c1cccc(C(=O)OCCc2cccs2)c1 (stereo not drawn) [Compound 91, 2′-(1-Amino-ethyl)-5′-(pyridin-4-ylcarbamoyl)-biphenyl-3-carboxylic acid 2-thiophen-2-yl-ethyl ester] | 100 to 1000 nM
COc1cc(OC(=O)c2cccc(-c3cc(C(=O)Nc4ccncc4)ccc3C(C)N)c2)cc(OC)c1OC (stereo not drawn) [Compound 80, 2′-(1-Amino-ethyl)-5′-(pyridin-4-ylcarbamoyl)-biphenyl-3-carboxylic acid 3,4,5-trimethoxy-phenyl ester] | 100 to 1000 nM
CCCCCCCCOC(=O)c1cccc(-c2cc(C(=O)Nc3ccncc3)ccc2C(C)N)c1 (stereo not drawn) [Compound 19, 2′-(1-Amino-ethyl)-5′-(pyridin-4-ylcarbamoyl)-biphenyl-3-carboxylic acid octyl ester] | 100 to 1000 nM
CCCCCOC(=O)c1cccc(-c2cc(C(=O)Nc3ccncc3)ccc2C(C)N)c1 (stereo not drawn) [Compound 16, 2′-(1-Amino-ethyl)-5′-(pyridin-4-ylcarbamoyl)-biphenyl-3-carboxylic acid pentyl ester] | 100 to 1000 nM
CC(N)c1ccc(C(=O)Nc2ccncc2F)cc1-c1cccc(OCCSC2CCOC2=O)c1 (stereo not drawn) [Compound 177] | 100 to 1000 nM
CC(N)c1ccc(C(=O)Nc2ccncc2)cc1-c1cccc(C(=O)OCCc2ccsc2)c1 (stereo not drawn) [Compound 92, 2′-(1-Amino-ethyl)-5′-(pyridin-4-ylcarbamoyl)-biphenyl-3-carboxylic acid 2-thiophen-3-yl-ethyl ester] | 100 to 1000 nM
CC(N)c1ccc(C(=O)Nc2ccncc2)cc1-c1cccc(C(=O)OCCc2ccccc2)c1 (stereo not drawn) [Compound 87, 2′-(1-Amino-ethyl)-5′-(pyridin-4-ylcarbamoyl)-biphenyl-3-carboxylic acid phenethyl ester] | 100 to 1000 nM
CC(N)c1ccc(C(=O)Nc2ccncc2)cc1-c1cccc(C(=O)OCC2COc3ccccc3O2)c1 (stereo not drawn) [Compound 56, 2′-(1-Amino-ethyl)-5′-(pyridin-4-ylcarbamoyl)-biphenyl-3-carboxylic acid 2,3-dihydro-benzo[1,4]dioxin-2-ylmethyl ester] | 100 to 1000 nM
CC(N)c1ccc(C(=O)Nc2ccncc2)cc1-c1cccc(C(=O)OC2CCCC2)c1 (stereo not drawn) [Compound 33, 2′-(1-Amino-ethyl)-5′-(pyridin-4-ylcarbamoyl)-biphenyl-3-carboxylic acid cyclopentyl ester] | < 100 nM
CC(N)c1ccc(C(=O)Nc2ccncc2)cc1-c1cccc(C(=O)OCCN2C(=O)c3ccccc3C2=O)c1 (stereo not drawn) [Compound 95, 2′-(1-Amino-ethyl)-5′-(pyridin-4-ylcarbamoyl)-biphenyl-3-carboxylic acid 2-(1,3-dioxo-1,3-dihydro-isoindol-2-yl)-ethyl ester] | 100 to 1000 nM
CC(N)c1ccc(C(=O)Nc2ccncc2)cc1-c1cccc(NC(=O)CC2CC(=O)Oc3ccccc32)c1 (stereo not drawn) [Compound 155, 6-(1-Amino-ethyl)-3′-[2-(2-oxo-chroman-4-yl)-acetylamino]-biphenyl-3-carboxylic acid pyridin-4-ylamide] | < 100 nM
CC(N)c1ccc(C(=O)Nc2ccncc2)cc1-c1cccc(C(=O)Oc2ccc(F)cc2)c1 (stereo not drawn) [Compound 72, 2′-(1-Amino-ethyl)-5′-(pyridin-4-ylcarbamoyl)-biphenyl-3-carboxylic acid 4-fluoro-phenyl ester] | < 100 nM
CCCOC(=O)COc1cccc(-c2cc(C(=O)Nc3ccncc3F)ccc2C(C)N)c1 (stereo not drawn) [Compound 141, [2′-(1-Amino-ethyl)-5′-(3-fluoro-pyridin-4-ylcarbamoyl)-biphenyl-3-yloxy]-acetic acid propyl ester] | 100 to 1000 nM
NCc1ccc(C(=O)Nc2ccncc2F)cc1-c1cccc(C(=O)Oc2ccccc2)c1 [Compound 175] | < 100 nM
CC(N)c1ccc(C(=O)Nc2ccncc2)cc1-c1cccc(C(=O)Oc2ccc3c(c2)OC(=O)CC3)c1 (stereo not drawn) [Compound 176] | < 100 nM
C=CCCCCCCCCOC(=O)c1cccc(-c2cc(C(=O)Nc3ccncc3)ccc2C(C)N)c1 (stereo not drawn) [Compound 25, 2′-(1-Amino-ethyl)-5′-(pyridin-4-ylcarbamoyl)-biphenyl-3-carboxylic acid dec-9-enyl ester] | 100 to 1000 nM
COc1cc(OC)cc(OC(=O)c2cccc(-c3cc(C(=O)Nc4ccncc4F)ccc3C(C)N)c2)c1 (stereo not drawn) [Compound 76, 2′-(1-Amino-ethyl)-5′-(3-fluoro-pyridin-4-ylcarbamoyl)-biphenyl-3-carboxylic acid 3,5-dimethoxy-phenyl ester] | 100 to 1000 nM
CCCCCCCCCCCOC(=O)c1cccc(-c2cc(C(=O)Nc3ccncc3)ccc2C(C)N)c1 (stereo not drawn) [Compound 21, 2′-(1-Amino-ethyl)-5′-(pyridin-4-ylcarbamoyl)-biphenyl-3-carboxylic acid undecyl ester] | 1000 to 10000 nM

The remaining lines, values ahead:

IC50 | Structure (SMILES)
< 100 nM | CC(N)c1ccc(C(=O)Nc2ccncc2)cc1-c1cccc(OCCSC2CCOC2=O)c1 (stereo not drawn) [Compound 130, 6-(1-Amino-ethyl)-3′-[2-(2-oxo-tetrahydro-furan-3-ylsulfanyl)-ethoxy]-biphenyl-3-carboxylylic acid pyridin-4-ylamide]
< 100 nM | CC(N)c1ccc(C(=O)Nc2ccncc2)cc1-c1cccc(C(=O)OCCc2ccccn2)c1 (stereo not drawn) [Compound 93, 2′-(1-Amino-ethyl)-5′-(pyridin-4-ylcarbamoyl)-biphenyl-3-carboxylic acid 2-pyridin-2-yl-ethyl ester]
< 100 nM | CC(N)c1ccc(C(=O)Nc2ccncc2F)cc1-c1cccc(C(=O)OCCO)c1 (stereo not drawn) [Compound 67, 2′-(1-Amino-ethyl)-5′-(3-fluoro-pyridin-4-ylcarbamoyl)-biphenyl-3-carboxylic acid 2-hydroxy-ethyl ester]
< 100 nM | CC(N)c1ccc(C(=O)Nc2ccncc2)cc1-c1cccc(C(=O)OC2CCCCC2)c1 (stereo not drawn) [Compound 34, 2′-(1-Amino-ethyl)-5′-(pyridin-4-ylcarbamoyl)-biphenyl-3-carboxylic acid cyclohexyl ester]
< 100 nM | COc1ccc(OC(=O)c2cccc(-c3cc(C(=O)Nc4ccncc4)ccc3C(C)N)c2)c(OC)c1OC (stereo not drawn) [Compound 81, 2′-(1-Amino-ethyl)-5′-(pyridin-4-ylcarbamoyl)-biphenyl-3-carboxylic acid 2,3,4-trimethoxy-phenyl ester]
< 100 nM | Cc1ccc(OC(=O)c2cccc(-c3cc(C(=O)Nc4ccncc4)ccc3C(C)N)c2)cc1 (stereo not drawn) [Compound 73, 2′-(1-Amino-ethyl)-5′-(pyridin-4-ylcarbamoyl)-biphenyl-3-carboxylic acid p-tolyl ester]
< 100 nM | CCOC(=O)CCNC(=O)c1cccc(-c2cc(C(=O)Nc3ccncc3)ccc2C(C)N)c1 (stereo not drawn) [Compound 105, 3-{[2′-(1-Amino-ethyl)-5′-(pyridin-4-ylcarbamoyl)-biphenyl-3-carbonyl]-amino}-propionic acid ethyl ester]
< 100 nM | COc1ccc(OC(=O)c2cccc(-c3cc(C(=O)Nc4ccncc4F)ccc3C(C)N)c2)cc1OC (stereo not drawn) [Compound 78, 2′-(1-Amino-ethyl)-5′-(3-fluoro-pyridin-4-ylcarbamoyl)-biphenyl-3-carboxylic acid 3,4-dimethoxy-phenyl ester]
< 100 nM | CSc1ccc(OC(=O)c2cccc(-c3cc(C(=O)Nc4ccncc4)ccc3C(C)N)c2)cc1 (stereo not drawn) [Compound 82, 2′-(1-Amino-ethyl)-5′-(pyridin-4-ylcarbamoyl)-biphenyl-3-carboxylic acid 4-methylsulfanyl-phenyl ester]
< 100 nM | COC(=O)c1cccc(-c2cc(C(=O)Nc3ccncc3)ccc2C(C)N)c1 (stereo not drawn) [Compound 4, 2′-(1-Amino-ethyl)-5′-(pyridin-4-ylcarbamoyl)-biphenyl-3-carboxylic acid methyl ester]
< 100 nM | CC(N)c1ccc(C(=O)Nc2ccncc2)cc1-c1cccc(C(=O)OCCCCCl)c1 (stereo not drawn) [Compound 69, 2′-(1-Amino-ethyl)-5′-(pyridin-4-ylcarbamoyl)-biphenyl-3-carboxylic acid 4-chloro-butyl ester]
< 100 nM | CC(N)c1ccc(C(=O)Nc2ccncc2)cc1-c1cccc(C(=O)SC(C)(C)C)c1 (stereo not drawn) [Compound 101, 2′-(1-Amino-ethyl)-5′-(pyridin-4-ylcarbamoyl)-biphenyl-3-carbothioic acid S-tert-butyl ester]
